Assays:
[1] = test system: rat insulinoma cells (INS-1 cells); assay: Insulin secretion of INS-1 cells under sustained glucose concentrations (rat insulin ELISA); assay type: cell-based
Method: In a further study we examined whether porcine relaxin has any effect on insulin expression and/or secretory capacity of pancreatic beta-cells. 2.5×10^5 rat insulinoma cells (INS-1 cells; see Mergler S et al, in Cellular Signalling (2008), doi: 10.1016/j.cellsig.2008.08.015) were plated in a 24-well plate and grown for three days in […] medium with supplements (Moore G. E. et. al., Culture of Normal Human Leukoctyes.” JAMA, v. 199, 519-524 (1967). On the day of the experiment, the medium was removed, and the INS-1 cells were washed three times and then preincubated for 30 min in KRB (Krebs-Ringer buffer: 115 mM NaCl, 5.9 mM KCl, 1.2 mM MgCl2, 1.2 mM NaH2PO4, 1.2 mM Na2PO4, 2.5 mM CaCl2, 25 mM NaHCO3, pH 7.4) comprising 0.5% BSA and 3.3 mM glucose. Cells were washed again with phosphate buffered saline (PBS: 137 mM NaCl, 2.7 mM KCl, 12 mM phosphate, pH 7.4) and incubated with different physiological and pathological glucose concentrations (2.8, 5.6, 11.2, 16.7, 33.2 mmol/L) for 48 hrs. After another washing, the amounts of insulin secreted by the INS-1 cells into the supernatant over another 48 hrs under the very same glucose conditions were determined using a rat insulin ELISA kit (units: ng/dl) (Immundiagnostik AG, Bensheim, Del.—Article No. KA80INSRT1). […]

[2] = Effect of relaxin on glucose levels in blood; settings: in vivo
[3] = cited from earlier work
[4] = over the entire dose range, previous pilot study (Dschietzig et al. 2009); cited from earlier work
[5] = test system: patients having type II diabetes or impaired glucose tolerance; assay: HOMA-index in human patients under i.v. H2 relaxin; assay type: in vivo; settings: i.v. over 16 hrs
Source text: In a study approved by the local ethical committee (Charité, Berlin, Germany) twelve patients (n=12) having type II diabetes or impaired glucose tolerance received intravenous synthetic H2 relaxin over a period of 16 hrs followed by a 24-hr follow-up. The anti-diabetic treatment of those patients was not varied. The improved HOMA-2 model used was in the present example because it reflects better human physiology. A HOMA of >2 indicates a potential insulin resistance; a HOMA of >2.5 beginning insulin resistance and a HOMA>5.0 is an average value of insulin resistance in untreated patients with manifest type-2 diabetes.
Of those twelve patients in this study two patients received sequential treatment for 8 hours each with dosages equivalent to 10 and 30 μg/kg of subject body weight per day, 6 patients received sequential treatment with 240 and 480 μg/kg of subject body weight per day, and another 4 patients received a constant infusion of 960 μg/kg of subject body weight per day. This was completed by follow-up determinations of glucose and insulin levels in serum 24 hours post termination of the i.v. relaxin administration.

[6] = test system: Zucker Diabetic Fatty rats; assay: HOMA-index in ZDF rats under sc relaxin; assay type: in vivo, rat; settings: 10-week old male ZDF rats, sc 500 μg/kg per day, within the 48-hour period
Source text: The homeostatic model assessment (HOMA=Insulin (μU/mi)×Glucose (mmol/l)/22.5) allows a quantification of insulin resistance and beta-cell function on the basis of mathematical equations describing glucose regulation as a feedback loop (see Matthews D R at al. Diabetologia 1985; 28(7): 412-9); Turner R C et al, Metabolism 1985; 28 (11): 1086-96). In order to assess the effects of relaxin on a diabetic metabolism we determined the HOMA of 10-week old male Zucker Diabetic Fatty rats (#25) pre-, during and post subcutanous administration of porcine relaxin (500 μg/kg rat per day). Thus, we determined the glucose and insulin levels in serum of 25 ZDF rats prior and 48 hours after sc administration of porcine relaxin. This was completed by follow-up determinations of glucose and insulin concentrations in serum 48 hours post the termination of the administration of porcine relaxin.

Question: Which “insulin secretion (as determined in cell supernatants)” value ([1]; 10 nM porcine relaxin-1, baseline and high-glucose conditions, secretion period of 48 hours, INS-1 cells) does the source give for relaxin here?
Answer: increased insulin secretion

Question: And the “high glucose-induced down-regulation of insulin expression and/or secretory capacity” value ([1]; 10 nmol/L porcine relaxin-1, cultured rat INS-1 cells, n=6, P<0.05 vs. control)?
Answer: efficient in preventing

Question: What about the “direct effect on glucose levels in blood” value [2] of the same substance?
Answer: not found any direct effect

Question: And the half-life in vivo [3]?
Answer: about two

Question: And the clinically adverse effects [4]?
Answer: no clinically adverse effects were observed

Question: With human relaxin-2 (H2 relaxin) as the substance, how does the “homeostatic model assessment (HOMA) in each diabetic patient (FIG. 2A)” value ([5]; 10 to 960 μg/kg per day, diabetic patients) read?
Answer: improved

Question: And the “homeostatic model assessment (HOMA) in non-diabetic subjects” value ([5]; subjects having an initial HOMA of less than 2.0)?
Answer: no or little impact

Question: For porcine relaxin-1 [porcine RLX], which “HOMA value of each animal (FIG. 1A)” value [6] is on record?
Answer: reduced HOMA value

Source: patent US10842851B2, “Relaxin for treating patients afflicted of impaired glucose tolerance” (Immundiagnostik AG, priority 2012, dated 2020)
